This is an account of results in publication PMC10507085, “Pharmacological inhibition of TBK1/IKKε blunts immunopathology in a murine model of SARS-CoV-2 infection” (Nature Communications, 2023).

Molecules are shown by their SMILES.

One experiment concerns the target RIOK3 (Homo sapiens, UniProt O14730). Description: biochemical. Details: KINOMEscan competition binding, DNA-tagged kinase against immobilised ligand, qPCR read-out. The conditions noted are these: read-out: Percent Control. As for the experimental part:
(§1) The KINOMEscan^TM kinase assays[65] were performed by Eurofins DiscoverX Corporation. For each kinase, the assay relies on the ability of the tested compound to compete against an immobilised ligand for binding to the DNA-tagged kinase. RT-qPCR is then used to measure the quantity of kinase molecules bound to the immobilised ligand, which is decreased if the tested compound competed with the kinase-ligand interaction. An 11-point 3-fold serial dilution of IDX compound was prepared in 100% DMSO at 100× final test concentration and subsequently diluted to 1× in the assay. […]

The target of another experiment is T1, KIAA0999 (Homo sapiens, UniProt Q9Y2K2).
T1 construct: gene SIK3
Description: biochemical. Details: KINOMEscan competition binding, DNA-tagged kinase against immobilised ligand, qPCR read-out. To be noted: read-out: Percent Control. As for the experimental part: as §1

For another experiment, the target named is ACVR2A (Homo sapiens, UniProt P27037). Briefly: biochemical. Also noted: KINOMEscan competition binding, DNA-tagged kinase against immobilised ligand, qPCR read-out. The conditions noted are these: read-out: Percent Control. As for the experimental part:
as §1

In the next experiment the target is EPHA7 (Homo sapiens, UniProt Q15375). Description: biochemical. Details: KINOMEscan competition binding, DNA-tagged kinase against immobilised ligand, qPCR read-out. To be noted: read-out: Percent Control. The method, then:
as §1

The target in another experiment is FLT3-autoinhibited (Homo sapiens, UniProt P36888). Briefly: biochemical. To be noted: read-out: Percent Control. Details: KINOMEscan competition binding, DNA-tagged kinase against immobilised ligand, qPCR read-out. The method, then: as §1
A further experiment addresses TXK (Homo sapiens, UniProt P42681). Description: biochemical. Details: KINOMEscan competition binding, DNA-tagged kinase against immobilised ligand, qPCR read-out. To be noted: read-out: Percent Control. As for the experimental part: as §1
A further experiment concerns the target PIK3C2G (Homo sapiens, UniProt O75747). Description: biochemical. Details: KINOMEscan competition binding, DNA-tagged kinase against immobilised ligand, qPCR read-out. The conditions noted are these: read-out: Percent Control. As for the experimental part: as §1
A further experiment has as its target FGFR3 (Homo sapiens, UniProt P22607). Description: biochemical. Details: KINOMEscan competition binding, DNA-tagged kinase against immobilised ligand, qPCR read-out. To be noted: read-out: Percent Control. As for the experimental part:
as §1

Another experiment deals with PAK4 (Homo sapiens, UniProt O96013). Briefly: biochemical. Also noted: KINOMEscan competition binding, DNA-tagged kinase against immobilised ligand, qPCR read-out. To be noted: read-out: Percent Control. The method, then:
as §1

For a further experiment, the target named is CDKL1 (Homo sapiens, UniProt Q00532). Description: biochemical. Also noted: KINOMEscan competition binding, DNA-tagged kinase against immobilised ligand, qPCR read-out. The conditions noted are these: read-out: Percent Control. As for the experimental part: as §1
In a further experiment the target is IKBKE (Homo sapiens, UniProt Q14164). Description: biochemical. Also noted: KINOMEscan competition binding, DNA-tagged kinase against immobilised ligand, qPCR read-out. The conditions noted are these: read-out: Percent Control. As for the experimental part: as §1
In another experiment the target is TRPM6 (Homo sapiens, UniProt Q9BX84). Description: biochemical. Also noted: KINOMEscan competition binding, DNA-tagged kinase against immobilised ligand, qPCR read-out. To be noted: read-out: Percent Control. The method, then:
as §1

In a further experiment the target is DDR1 (Homo sapiens, UniProt Q08345). Briefly: biochemical. Details: KINOMEscan competition binding, DNA-tagged kinase against immobilised ligand, qPCR read-out. The conditions noted are these: read-out: Percent Control. As for the experimental part:
as §1

Another experiment concerns the target T2, DRAK1 (Homo sapiens, UniProt Q9UEE5).
T2 construct: gene STK17A
T2 sequence (Q9UEE5 1-414): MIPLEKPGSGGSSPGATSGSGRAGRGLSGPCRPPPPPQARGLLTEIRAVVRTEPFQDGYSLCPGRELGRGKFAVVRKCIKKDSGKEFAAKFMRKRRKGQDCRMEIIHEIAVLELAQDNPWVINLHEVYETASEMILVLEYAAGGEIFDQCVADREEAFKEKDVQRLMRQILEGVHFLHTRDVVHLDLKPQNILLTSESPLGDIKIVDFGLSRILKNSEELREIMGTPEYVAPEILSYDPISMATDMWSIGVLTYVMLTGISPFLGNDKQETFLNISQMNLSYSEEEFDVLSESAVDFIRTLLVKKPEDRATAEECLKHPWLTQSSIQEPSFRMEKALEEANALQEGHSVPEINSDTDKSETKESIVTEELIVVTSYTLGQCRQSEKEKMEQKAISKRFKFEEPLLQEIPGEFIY
Briefly: KINOMEscan competition binding ([…] kinases, […] IDX).

Another experiment deals with T3, PFPK5(P.falciparum) (Plasmodium falciparum, UniProt P61075).
T3 construct: gene CRK2
Description: biochemical. Details: KINOMEscan competition binding, DNA-tagged kinase against immobilised ligand, qPCR read-out. The conditions noted are these: read-out: Percent Control.

Another experiment concerns the target DYRK1B (Homo sapiens, UniProt Q9Y463). Description: biochemical. The conditions noted are these: read-out: Percent Control.
In the next experiment the target is LTK (Homo sapiens, UniProt P29376). Description: biochemical. To be noted: read-out: Percent Control.
In the next experiment the target is PIM2 (Homo sapiens, UniProt Q9P1W9). Briefly: KINOMEscan competition binding ([…] kinases, […] IDX).

Chain of FGFR3 (P22607 whole entry): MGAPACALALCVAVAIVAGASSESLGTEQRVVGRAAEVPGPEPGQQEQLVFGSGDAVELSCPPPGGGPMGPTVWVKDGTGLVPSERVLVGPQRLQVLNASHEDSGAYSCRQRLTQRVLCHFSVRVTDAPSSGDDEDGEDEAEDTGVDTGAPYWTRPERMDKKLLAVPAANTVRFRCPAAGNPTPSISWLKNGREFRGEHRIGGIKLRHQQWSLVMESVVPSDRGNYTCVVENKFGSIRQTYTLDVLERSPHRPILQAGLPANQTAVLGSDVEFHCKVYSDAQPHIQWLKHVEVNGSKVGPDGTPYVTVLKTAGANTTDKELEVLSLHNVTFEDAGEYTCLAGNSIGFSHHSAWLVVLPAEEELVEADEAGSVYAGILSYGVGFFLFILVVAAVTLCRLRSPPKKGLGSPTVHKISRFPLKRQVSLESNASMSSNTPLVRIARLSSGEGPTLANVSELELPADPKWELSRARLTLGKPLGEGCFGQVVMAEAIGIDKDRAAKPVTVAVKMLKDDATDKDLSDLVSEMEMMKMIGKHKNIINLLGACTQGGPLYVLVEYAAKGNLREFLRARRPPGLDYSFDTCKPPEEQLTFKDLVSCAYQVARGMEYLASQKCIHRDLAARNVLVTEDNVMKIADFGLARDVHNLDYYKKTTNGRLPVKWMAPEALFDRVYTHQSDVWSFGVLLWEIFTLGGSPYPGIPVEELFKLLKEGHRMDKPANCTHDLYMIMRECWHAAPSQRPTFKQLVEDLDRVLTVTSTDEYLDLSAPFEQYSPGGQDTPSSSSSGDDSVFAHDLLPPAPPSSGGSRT
Chain of LTK (P29376 whole entry): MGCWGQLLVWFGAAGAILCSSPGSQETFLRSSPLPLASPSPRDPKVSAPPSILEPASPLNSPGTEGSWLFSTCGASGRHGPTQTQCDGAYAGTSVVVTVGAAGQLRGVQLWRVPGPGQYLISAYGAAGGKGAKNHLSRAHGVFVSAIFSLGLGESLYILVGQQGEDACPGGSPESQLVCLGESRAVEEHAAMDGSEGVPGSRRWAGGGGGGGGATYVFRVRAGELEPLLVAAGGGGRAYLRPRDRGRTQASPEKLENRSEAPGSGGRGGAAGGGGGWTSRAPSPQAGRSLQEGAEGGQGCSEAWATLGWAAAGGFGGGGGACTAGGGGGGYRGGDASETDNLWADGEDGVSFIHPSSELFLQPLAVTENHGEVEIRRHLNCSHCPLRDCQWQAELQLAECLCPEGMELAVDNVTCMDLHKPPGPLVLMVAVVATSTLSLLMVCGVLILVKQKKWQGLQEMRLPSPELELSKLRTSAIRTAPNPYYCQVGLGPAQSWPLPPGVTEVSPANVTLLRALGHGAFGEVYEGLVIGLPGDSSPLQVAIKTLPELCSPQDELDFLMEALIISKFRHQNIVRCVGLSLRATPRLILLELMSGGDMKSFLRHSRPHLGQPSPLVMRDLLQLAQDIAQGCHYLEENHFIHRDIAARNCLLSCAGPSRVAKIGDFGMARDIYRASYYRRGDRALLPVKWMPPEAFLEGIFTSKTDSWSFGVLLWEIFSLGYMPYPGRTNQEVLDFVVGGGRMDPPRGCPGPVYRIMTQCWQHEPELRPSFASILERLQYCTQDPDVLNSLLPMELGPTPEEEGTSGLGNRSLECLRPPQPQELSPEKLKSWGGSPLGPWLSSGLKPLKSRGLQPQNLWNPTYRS
Chain of EPHA7 (Q15375 whole entry): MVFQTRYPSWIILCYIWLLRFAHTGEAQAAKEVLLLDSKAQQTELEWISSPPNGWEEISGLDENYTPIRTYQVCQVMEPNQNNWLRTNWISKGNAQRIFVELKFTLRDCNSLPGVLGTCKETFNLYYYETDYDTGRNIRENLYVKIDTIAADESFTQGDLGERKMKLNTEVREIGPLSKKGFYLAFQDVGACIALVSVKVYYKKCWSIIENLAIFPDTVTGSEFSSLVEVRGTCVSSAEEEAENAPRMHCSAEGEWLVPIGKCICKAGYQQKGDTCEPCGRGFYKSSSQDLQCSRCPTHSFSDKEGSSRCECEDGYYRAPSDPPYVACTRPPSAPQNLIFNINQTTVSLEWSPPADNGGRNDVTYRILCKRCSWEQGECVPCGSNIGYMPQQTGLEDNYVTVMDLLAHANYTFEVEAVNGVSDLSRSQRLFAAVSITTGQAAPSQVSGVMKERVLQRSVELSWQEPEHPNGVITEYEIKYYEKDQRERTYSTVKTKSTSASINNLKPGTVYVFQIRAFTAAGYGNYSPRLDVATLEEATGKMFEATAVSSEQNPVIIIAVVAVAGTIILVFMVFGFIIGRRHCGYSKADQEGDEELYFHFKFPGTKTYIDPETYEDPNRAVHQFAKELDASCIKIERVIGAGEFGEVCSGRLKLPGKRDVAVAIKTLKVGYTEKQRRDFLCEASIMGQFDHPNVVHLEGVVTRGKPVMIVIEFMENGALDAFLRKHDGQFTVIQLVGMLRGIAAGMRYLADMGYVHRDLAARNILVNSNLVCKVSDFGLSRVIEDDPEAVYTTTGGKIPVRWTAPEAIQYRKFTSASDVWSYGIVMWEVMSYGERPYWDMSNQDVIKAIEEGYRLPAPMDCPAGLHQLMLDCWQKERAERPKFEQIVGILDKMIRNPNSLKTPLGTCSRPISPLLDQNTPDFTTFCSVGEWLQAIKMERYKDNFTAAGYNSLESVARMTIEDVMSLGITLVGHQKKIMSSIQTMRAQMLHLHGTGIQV
Chain of CDKL1 (Q00532 whole entry): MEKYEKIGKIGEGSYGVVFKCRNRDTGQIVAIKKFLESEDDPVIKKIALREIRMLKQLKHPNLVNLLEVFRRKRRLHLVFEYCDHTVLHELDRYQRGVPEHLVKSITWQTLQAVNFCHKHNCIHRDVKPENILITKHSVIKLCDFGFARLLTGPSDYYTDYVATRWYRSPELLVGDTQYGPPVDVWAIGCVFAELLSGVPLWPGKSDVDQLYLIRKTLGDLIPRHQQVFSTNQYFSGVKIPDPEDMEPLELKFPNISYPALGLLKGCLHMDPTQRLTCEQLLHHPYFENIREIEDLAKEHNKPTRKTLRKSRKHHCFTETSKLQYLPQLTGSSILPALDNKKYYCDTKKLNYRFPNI
Chain of FLT3-autoinhibited (P36888 whole entry): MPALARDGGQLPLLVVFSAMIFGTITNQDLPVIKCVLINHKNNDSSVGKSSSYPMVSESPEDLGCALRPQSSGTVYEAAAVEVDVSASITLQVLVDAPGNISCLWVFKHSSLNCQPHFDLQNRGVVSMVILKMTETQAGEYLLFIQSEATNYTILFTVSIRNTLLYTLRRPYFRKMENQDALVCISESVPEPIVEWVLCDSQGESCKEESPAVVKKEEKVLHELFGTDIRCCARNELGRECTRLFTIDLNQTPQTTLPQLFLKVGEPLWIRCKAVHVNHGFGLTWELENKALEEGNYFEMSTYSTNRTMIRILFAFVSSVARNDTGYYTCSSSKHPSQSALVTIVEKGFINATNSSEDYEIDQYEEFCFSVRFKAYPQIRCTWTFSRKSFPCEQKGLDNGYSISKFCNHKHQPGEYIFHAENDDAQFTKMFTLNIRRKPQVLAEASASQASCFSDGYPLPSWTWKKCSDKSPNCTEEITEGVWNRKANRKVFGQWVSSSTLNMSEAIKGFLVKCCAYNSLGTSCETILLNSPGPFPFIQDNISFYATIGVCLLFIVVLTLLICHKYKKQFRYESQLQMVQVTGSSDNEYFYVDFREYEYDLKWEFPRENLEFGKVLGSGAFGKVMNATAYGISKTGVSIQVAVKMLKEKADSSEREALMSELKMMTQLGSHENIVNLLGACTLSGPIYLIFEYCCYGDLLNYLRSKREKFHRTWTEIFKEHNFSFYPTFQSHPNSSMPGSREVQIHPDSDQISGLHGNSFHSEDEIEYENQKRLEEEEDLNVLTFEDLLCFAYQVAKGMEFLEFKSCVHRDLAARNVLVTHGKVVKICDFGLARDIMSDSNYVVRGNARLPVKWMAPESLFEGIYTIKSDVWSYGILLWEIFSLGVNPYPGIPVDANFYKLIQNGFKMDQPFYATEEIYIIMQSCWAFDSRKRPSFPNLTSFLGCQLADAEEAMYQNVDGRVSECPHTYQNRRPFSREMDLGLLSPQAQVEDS
Chain of DDR1 (Q08345 whole entry): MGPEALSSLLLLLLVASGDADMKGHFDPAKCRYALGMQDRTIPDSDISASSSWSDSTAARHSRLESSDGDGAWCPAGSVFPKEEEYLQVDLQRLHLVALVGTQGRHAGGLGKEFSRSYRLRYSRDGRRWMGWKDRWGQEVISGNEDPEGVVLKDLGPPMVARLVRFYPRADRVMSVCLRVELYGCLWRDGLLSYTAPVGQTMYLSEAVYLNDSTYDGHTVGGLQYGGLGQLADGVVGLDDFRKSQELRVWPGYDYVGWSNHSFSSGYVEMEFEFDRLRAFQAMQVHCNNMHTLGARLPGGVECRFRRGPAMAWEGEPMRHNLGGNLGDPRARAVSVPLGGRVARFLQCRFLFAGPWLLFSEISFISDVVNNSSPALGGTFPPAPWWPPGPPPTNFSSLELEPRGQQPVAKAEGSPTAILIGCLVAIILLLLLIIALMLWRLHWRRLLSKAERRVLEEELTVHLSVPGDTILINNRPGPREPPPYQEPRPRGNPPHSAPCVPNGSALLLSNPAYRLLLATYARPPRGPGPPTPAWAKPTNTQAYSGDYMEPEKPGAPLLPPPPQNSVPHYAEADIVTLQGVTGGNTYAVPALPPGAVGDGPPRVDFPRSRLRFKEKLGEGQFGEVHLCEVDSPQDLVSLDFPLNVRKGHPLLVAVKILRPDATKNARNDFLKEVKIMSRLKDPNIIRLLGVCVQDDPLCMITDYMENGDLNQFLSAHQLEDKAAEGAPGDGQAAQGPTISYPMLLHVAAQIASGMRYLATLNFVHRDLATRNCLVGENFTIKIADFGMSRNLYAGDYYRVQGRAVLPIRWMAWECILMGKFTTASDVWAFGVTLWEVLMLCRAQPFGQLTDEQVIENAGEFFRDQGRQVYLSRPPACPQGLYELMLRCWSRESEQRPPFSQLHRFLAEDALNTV

With `Oc1ccc(C2=Cc3ccc(O)cc3OC2)cc1` [compound 1, idronoxil], the remaining binding at 10 µM at RIOK3 amounted to 100%; at KIAA0999, 89%; at ACVR2A it was 66%; at EPHA7, 96%; at FLT3-autoinhibited, 51%; on TXK it was 87%. Moreover, the remaining binding at 10 µM at PIK3C2G worked out at 73%; on FGFR3 it was 80%; on PAK4, 76%; at CDKL1, 77%; at IKBKE, 65%; at TRPM6 it was 88%. Besides, the figures for the remaining binding at 10 µM at DDR1 and on PFPK5(P.falciparum) were 87% and 95%, respectively. Moreover, the “KINOMEscan competition binding (403 kinases, 10 μM IDX)” value at DRAK1 is “broadly a poor kinase inhibitor, only binding its top two targets (PIM2 and DRAK1) in the micromolar range”; on PIM2, “broadly a poor kinase inhibitor, only binding its top two targets (PIM2 and DRAK1) in the micromolar range”. Further, the results for the remaining activity at 10 µM on DYRK1B and on LTK were 27% and 95%, respectively.
